Where no end group is shown, it is not given here.
How the values were obtained:
[1] = target: Ca2+/calmodulin-dependent protein kinase II (CaMKII); conditions: cited from earlier work
advanced NSCLC = conditions: patients with advanced NSCLC; P=0.04; cited from earlier work
[2] = target: Calcium/Calmodulin-Dependent Protein Kinase I (CaMKI) (Homo sapiens, UniProt Q14012); assay: biochemical; conditions: read-out: inhibition of kinase activity of CaMKI
Description: (§1) Every kinase activity measurement was conducted in duplicate.
(§2) IC50 (half maximal inhibitory concentrations) value for the MK2 inhibitor peptides identified below was determined using Millipore's IC50 Profiler Express service. […] Specifically, in these assays, a positively charged substrate is phosphorylated with a radiolabeled phosphate group from an ATP if the kinase is not inhibited by an inhibitor peptide. The positively charged substrate then is attracted to a negatively charged filter membrane, quantified with a scintillation counter, and compared to a 100% activity control.

[3] = target: (Homo sapiens, UniProt Q15746); type: biochemical; conditions: MLCK(h); peptide 100 μM
Sequence of (Homo sapiens, UniProt Q15746) (Q15746 whole entry): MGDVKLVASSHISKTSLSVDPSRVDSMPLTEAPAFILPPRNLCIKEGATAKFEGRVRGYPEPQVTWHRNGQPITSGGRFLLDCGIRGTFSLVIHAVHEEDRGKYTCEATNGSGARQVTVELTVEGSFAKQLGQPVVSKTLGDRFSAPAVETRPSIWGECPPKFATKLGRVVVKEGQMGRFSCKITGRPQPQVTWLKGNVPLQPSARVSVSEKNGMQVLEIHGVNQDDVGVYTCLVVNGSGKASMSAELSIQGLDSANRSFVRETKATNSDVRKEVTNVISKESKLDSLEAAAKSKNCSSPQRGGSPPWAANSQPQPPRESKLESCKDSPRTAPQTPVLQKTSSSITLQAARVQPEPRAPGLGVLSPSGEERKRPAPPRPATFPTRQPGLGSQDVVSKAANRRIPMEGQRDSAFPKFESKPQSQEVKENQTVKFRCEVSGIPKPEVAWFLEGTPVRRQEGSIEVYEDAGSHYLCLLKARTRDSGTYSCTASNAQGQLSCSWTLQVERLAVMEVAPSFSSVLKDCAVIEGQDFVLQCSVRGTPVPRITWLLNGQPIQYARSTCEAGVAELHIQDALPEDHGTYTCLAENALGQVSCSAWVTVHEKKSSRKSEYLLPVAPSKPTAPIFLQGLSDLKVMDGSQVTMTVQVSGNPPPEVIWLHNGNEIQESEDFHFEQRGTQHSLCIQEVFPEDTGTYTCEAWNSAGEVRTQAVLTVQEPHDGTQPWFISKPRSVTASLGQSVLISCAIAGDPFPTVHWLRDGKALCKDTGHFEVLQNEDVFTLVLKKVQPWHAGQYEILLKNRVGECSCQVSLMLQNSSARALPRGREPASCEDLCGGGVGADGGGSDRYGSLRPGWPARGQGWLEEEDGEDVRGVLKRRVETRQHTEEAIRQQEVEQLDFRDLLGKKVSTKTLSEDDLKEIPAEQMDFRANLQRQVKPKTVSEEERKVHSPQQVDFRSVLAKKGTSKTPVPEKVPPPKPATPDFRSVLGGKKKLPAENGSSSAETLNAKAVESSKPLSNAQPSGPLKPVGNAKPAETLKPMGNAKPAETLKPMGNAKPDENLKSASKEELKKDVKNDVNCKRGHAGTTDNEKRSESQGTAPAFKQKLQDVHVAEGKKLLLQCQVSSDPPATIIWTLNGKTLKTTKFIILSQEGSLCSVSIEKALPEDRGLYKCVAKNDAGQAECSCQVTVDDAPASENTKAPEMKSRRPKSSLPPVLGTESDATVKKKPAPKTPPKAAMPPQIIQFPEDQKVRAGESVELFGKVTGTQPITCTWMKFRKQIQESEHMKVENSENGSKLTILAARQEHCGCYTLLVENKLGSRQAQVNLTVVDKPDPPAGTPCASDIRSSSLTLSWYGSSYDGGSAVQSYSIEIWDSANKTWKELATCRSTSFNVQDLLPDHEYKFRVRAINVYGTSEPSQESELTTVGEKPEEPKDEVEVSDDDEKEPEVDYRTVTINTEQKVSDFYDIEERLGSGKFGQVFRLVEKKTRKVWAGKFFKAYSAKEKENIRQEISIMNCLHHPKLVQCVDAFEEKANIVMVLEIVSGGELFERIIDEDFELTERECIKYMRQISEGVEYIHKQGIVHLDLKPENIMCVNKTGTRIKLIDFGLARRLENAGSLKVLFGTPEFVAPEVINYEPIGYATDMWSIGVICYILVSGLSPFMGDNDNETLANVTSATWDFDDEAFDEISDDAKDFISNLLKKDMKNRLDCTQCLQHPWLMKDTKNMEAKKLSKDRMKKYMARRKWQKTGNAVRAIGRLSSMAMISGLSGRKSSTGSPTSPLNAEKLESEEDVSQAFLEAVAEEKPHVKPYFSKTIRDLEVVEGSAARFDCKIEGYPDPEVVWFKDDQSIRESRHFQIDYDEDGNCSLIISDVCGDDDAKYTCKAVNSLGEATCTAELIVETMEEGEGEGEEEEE
Description: as §1, §2

266 human kinases = type: biochemical; conditions: peptide at 100 μM, 266 human kinases
Description: as §1, §2

Sequence of Calcium/Calmodulin-Dependent Protein Kinase I (CaMKI) (Q14012 whole entry): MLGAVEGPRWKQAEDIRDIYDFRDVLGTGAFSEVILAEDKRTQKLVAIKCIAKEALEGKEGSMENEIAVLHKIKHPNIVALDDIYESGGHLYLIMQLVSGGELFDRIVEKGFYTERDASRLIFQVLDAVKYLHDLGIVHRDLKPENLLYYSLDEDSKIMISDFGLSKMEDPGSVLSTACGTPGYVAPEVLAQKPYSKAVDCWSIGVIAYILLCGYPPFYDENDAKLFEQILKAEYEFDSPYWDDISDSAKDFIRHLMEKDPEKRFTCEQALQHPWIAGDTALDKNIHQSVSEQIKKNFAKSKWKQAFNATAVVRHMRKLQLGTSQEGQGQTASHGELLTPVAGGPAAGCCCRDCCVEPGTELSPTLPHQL

Row | Substance | off-target kinase inhibition (specificity) (266 human kinases) | also measured
1 | autocamtide-2 related inhibitory peptide [AIP] | – | IC50 [1]: 100 nM
2 | cisplatin/vinorelbine | – | overall survival (advanced NSCLC): 10.1 months
3 | YARAAARQARAKALARQLGVAA [MMI-0100] | – | inhibition at 100 µM [2]: > 65%; % activity [3]: 85%
4 | YARAAARQARAKALNRQLGVA (Mammalian) [MMI-0200] | very limited off-target kinase inhibition | –
5 | KAFAKLAARLYRKALARQLGVAA [MMI-0400] | very limited off-target kinase inhibition | –
6 | HRRIKAWLKKIKALARQLGVAA (Mammalian) [MMI-0500] | very limited off-target kinase inhibition | –
7 | FAKLAARLYRKALARQLGVAA [MMI-0300] | very limited off-target kinase inhibition | –

Source: patent US9999655B2, “Use of MKS inhibitor peptide-containing compositions for treating non-small cell lung cancer with same” (Moerae Matrix, Inc., priority 2015, dated 2018)
